# Laboratory results published in PMC6982022 (International Journal of Molecular Sciences, 2019).
# Entries after “also recorded” stand apart in the source; their conditions may differ. Like-named read-outs stand apart in the source and are kept apart here.
# What was measured:
# [1] = system: C57BL6J mice; experiment: Testis histology (H&E) after 35 days oral dosing; assay type: in vivo, mouse; settings: 15, 25 or 50 mg/kg, oral daily
# Experimental: Groups of six mice, each, were used for three different doses of NB-DNJ or NB-DGJ formulated in milliQ water at 50 mg/kg, 25 mg/kg and 15 mg/kg, respectively. Control groups were given an equivalent volume of water. Animals were given compound or control once daily for 35 consecutive days via oral gavage using animal feeding needles (Biomedical Needles, Popper, NY, USA). Body weight was noted every week for all treatment groups. Mice were euthanized at the end of a 35 days dosing regimen using CO2 asphyxia followed by cervical dislocation. Testes were harvested, weighed and stored in Bouin’s fixative for 48 h, then sliced into two halves, and stored in fresh Bouin’s for another 24 h. The tissue slices were then rinsed in 70% ethanol and processed and stained for histology using a standard protocol for Hematoxylin and eosin staining. Spermatids with elongated and abnormally shaped heads were counted per 20 fields and average number calculated for 6 mice/group.
# [2] = Pharmacokinetic study, single oral bolus, plasma LC/MS/MS; assay type: in vivo, rat; settings: male CD rats, single oral 150 mg/kg; for Cmax: male, CD, plasma, po, 150 mg/kg
# Experimental: Four male CD rats (225–235 g) were purchased from Harlan (Indianapolis, IN, USA) with in-dwelling jugular cannulas and allowed to acclimate for 72 h in climate-regulated holding rooms in the University of Minnesota’s AAALAC-certified animal facilities. Standard rat chow and water were provided ad libitum throughout the study. NB-DGJ was formulated as described above to 33.75 mg/mL for in vivo administration. Rats were dosed orally by using a 15 G × 3” disposable gavage needle with a maximum volume of 5 mL/kg body weight. At various time points (0.083, 0.25, 0.5, 1, 2, 4, 8, 12, 24 and 48 h) following dosing, approximately 0.1 mL of blood was collected from each rat into BD Microtainer® with Lithium Heparin (Becton-Dickinson). Plasma was then isolated by allowing the samples to sit at room temperature for 30 min followed by microcentrifugation at 15,000× g for 5 min. Plasma samples were then stored at −70 °C until processing and analysis.
# Frozen plasma samples were thawed on ice and processed by adding 2 volumes of 100% acetonitrile (containing 750 ng/mL miglitol (N-hydroxyethyl-1-deoxynojirimycin) as an internal standard) and vortexed. The samples were then incubated on ice for 1 h and then microcentrifuged at 15,000× g for 5 min. The cleared supernatants were then transferred to 12 × 32 mm glass vials with inserts (Thermo Scientific™ National™ Inserts for Target™ LoVial™ Wide-Opening Vials).
# Processed samples were analyzed by LC/MS/MS using a previously published method. A standard curve consisting of normal rat plasma containing varying concentrations (1500, 500, 166.7, 55.6, 18.5, 6.2, 2.1, 0.7 and 0.22 ng/mL) of NB-DGJ was constructed and processed as described above. The analytical system was composed of a Quattro Ultima triple quadrupole MS/MS coupled with a Waters Acquity UPLC (Ultra Performance Liquid Chromatography). UPLC isocratic separation of analytes was performed using a Waters Atlantis Hilic 3 µm, 150 × 2.1 mm analytical column (Waters Corporation, Milford, MA, USA) maintained at 30 °C. The eluent was a mixture of acetonitrile/water/buffer (75/10/15, v/v/v) delivered at 0.25 mL/min. The buffer consisted of 100 mM ammonium acetate, pH 5. For the quantification of NB-DGJ and miglitol (internal standard), the transitions m/z 220 (Q1) → m/z 158 (Q3) and m/z 208 (Q1) → m/z 146 (Q3) were monitored, respectively. Data reduction was performed with QuanLynx software. PK analysis was performed by WinNonLin using a non-compartmental model.
# [3] = system: male CD rats; experiment: Rat mating trial (fertility); assay type: in vivo; settings: for Conceptus, mean abnormal / Fertile/Mated / Conceptus, mean normal: 150 mg/kg/day oral days 0-34
# Experimental: Eighteen adult male CD rats were divided into three groups of six rats each. One group of six CD rats was treated with vehicle (distilled water containing 0.9% benzyl alcohol) via oral gavage (5 mL/kg/day), and the second group (6 rats) was treated with NB-DGJ (in distilled water containing 0.9% benzyl alcohol) via oral gavage at 150 mg/kg/day (in approximately 5 mL/kg of water) daily for 35 consecutive days. The third group (6 rats) was treated with 15 mg/kg NB-DNJ in distilled water containing 0.9% benzyl alcohol) via oral gavage (in approximately 5 mL/kg of water) daily for 35 consecutive days (Figure S5).
# (§1) Rats were weighed on day 0 (first day of dosing) and weekly thereafter. Dosages were adjusted based on the most recent body weight. Males were cohabited with untreated females (one male per two females) weekly at weeks 1 through 9 [38, 39]. Females were necropsied seven days after separation from males to determine the numbers of implantation sites. Individual male rats were bled from the tail vein at weeks 0, 1, 4, and 7 and serum was harvested by centrifugation. At week 11, the male rats were weighed, anesthetized, and exsanguinated. Sera were analyzed for inhibin B by ELISA (enzyme-linked immunosorbent assay), and rat follicle stimulating hormone (rFSH) and testosterone by radioimmunoassay. Testes, epididymides, ventral prostates, and seminal vesicles were excised and weighed. The left testis was homogenized, and spermatid head counts obtained.
# (§2) Statistical analysis using the Student’s t-test was performed on body weights, paired testes weights, ventral prostrate weights, seminal vesicle weights, paired epididymal weights, spermatid head counts, percent motile and normal epididymal sperm. We used analysis of variance (ANOVA) for serum inhibin B, rFSH, and testosterone, since these measurements were repeated throughout the study period. The effect of NB-DNJ at 15 mg/kg/day dose in the rat model was studied following the same protocol as that for NB-DGJ.
# [4] = system: male CD rats; experiment: Serum hormone levels during mating trial; assay type: in vivo, rat; settings: 150 mg/kg/day; weeks 0, 1, 4 and 7; ANOVA
# Text: as §1, §2
compound,measurement,setting,value
"CCCCN1C[C@H](O)[C@@H](O)[C@@H](O)[C@H]1CO [NB-DGJ, N-butyldeoxygalactonojirimycin]","Testis histology, spermatid heads (in words)",[1],"rounded, abnormally shaped spermatid heads"
same,t½_Lambda_z,"[2]; n = 4, plasma",6.5 h
same,Cmax,"[2]; rat, converted from ng/mL, read-out: Cmax (plasma level) in molar units",50 µM
same,Cmax,"[2]; rat, n = 4, plasma, read-out: Cmax",11000 ng/mL
same,tmax,"[2]; rat, n = 4, plasma",1.3 h
same,AUC(0-inf),"[2]; rat, n = 4, plasma, non-compartmental, read-out: AUCINF_Obs",55600 ng·h/mL
same,Treatment time after which fertility was blocked,[3]; 150 mg/kg/day oral,35 days
same,"Conceptus, mean abnormal",[3]; week of study 1,0.3
same,Fertile/Mated,[3]; week of study 1,6/6
same,"Conceptus, mean normal","[3]; week of study 1, both females per male",14
same,"Conceptus, mean abnormal",[3]; week of study 2,0.1
same,"Conceptus, mean normal",[3]; week of study 2,6
same,Fertile/Mated,[3]; week of study 2,6/6
same,"Conceptus, mean abnormal",[3]; week of study 3,0
same,"Conceptus, mean normal",[3]; week of study 3,1
same,Fertile/Mated,[3]; week of study 3,3/6
same,"Conceptus, mean abnormal",[3]; week of study 4,0/0
same,"Conceptus, mean normal",[3]; week of study 4,0/0
same,Fertile/Mated,[3]; week of study 4,0/6
same,"Conceptus, mean abnormal",[3]; week of study 5,2
same,Fertile/Mated,[3]; week of study 5,6/6
same,"Conceptus, mean normal",[3]; week of study 5 (after termination of dosing),10
same,"Conceptus, mean abnormal",[3]; week of study 6,0.3
same,"Conceptus, mean normal",[3]; week of study 6,13
same,Fertile/Mated,[3]; week of study 6,6/6
same,"Conceptus, mean abnormal",[3]; week of study 7,0.3
same,"Conceptus, mean normal",[3]; week of study 7,13
same,Fertile/Mated,[3]; week of study 7,6/6
same,"Conceptus, mean abnormal",[3]; week of study 8,0.3
same,"Conceptus, mean normal",[3]; week of study 8,14
same,Fertile/Mated,[3]; week of study 8,6/6
same,"Conceptus, mean abnormal",[3]; week of study 9,0.5
same,"Conceptus, mean normal",[3]; week of study 9,13
same,Fertile/Mated,[3]; week of study 9,6/6
same,Return of fertility after termination of dosing,[3]; 150 mg/kg/day oral for 35 days,within one week
same,Reduction of numbers of normal conceptuses,"[3]; 150 mg/kg/day oral, second week",50%
same,Treated rats infertile,"[3]; 150 mg/kg/day oral, week four",100%
same,Treated rats rendered infertile,"[3]; 150 mg/kg/day oral, week three",50%
same,Effect on fertility (in words),"[3]; 150 mg/kg/day, daily single oral dose, 35 days",induced reversible infertility; also recorded: caused reversible infertility
same,Adverse effects in treated animals,"[3]; daily dose of 150 mg/kg, 35 days",lack of adverse effects
same,Serum inhibin B versus control,[4],No significant differences
same,Serum rFSH versus control,[4],No significant differences
same,Serum testosterone versus control,[4],No significant differences
